Measurements as given in ChEMBL document CHEMBL1201862, “PubChem BioAssay data set” (2004).
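96-well plates; 48 h exposure; 5 concentrations. Endpoints by linear interpolation between flanking doses. Not reached: highest tested concentration assigned. GI50 = concentration required for 50% inhibition of growth.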 Active and inactive are the calls of the source. Rule as the data show it: active = GI50 up to about 1.1 µM and inactive = higher.

Legend:
Test in all cases: growth of human tumour cells (NCI), 48 h
NCI-H226 = system: NCI-H226
NCI-H460 = system: NCI-H460
PC-3 = system: PC-3
UACC-257 = system: UACC-257
CCRF-CEM = system: CCRF-CEM
MCF7 = system: MCF7
BT-549 = system: BT-549
RPMI-8226 = system: RPMI-8226
SW-620 = system: SW-620
SF-539 = system: SF-539
UO-31 = system: UO-31
HCT-15 = system: HCT-15
A498 = system: A498
OVCAR-5 = system: OVCAR-5
SF-295 = system: SF-295
HCT-116 = system: HCT-116
RXF 393 = system: RXF 393
HL-60 = system: HL-60
COLO 205 = system: COLO 205
HT-29 = system: HT-29
NCI/ADR-RES = system: NCI/ADR-RES
MOLT-4 = system: MOLT-4
M14 = system: M14
SK-MEL-5 = system: SK-MEL-5
DU-145 = system: DU-145
SF-268 = system: SF-268
SNB-75 = system: SNB-75
HOP-62 = system: HOP-62
MDA-N = system: MDA-N
ACHN = system: ACHN
SK-OV-3 = system: SK-OV-3
A549 = system: A549
EKVX = system: EKVX
UACC-62 = system: UACC-62
KM12 = system: KM12
T47D = system: T47D
OVCAR-3 = system: OVCAR-3
Hs-578T = system: Hs-578T
SK-MEL-28 = system: SK-MEL-28
HCC 2998 = system: HCC 2998
Malme-3M = system: Malme-3M
SNB-19 = system: SNB-19
SK-MEL-2 = system: SK-MEL-2
K562 = system: K562
U-251 = system: U-251
NCI-H23 = system: NCI-H23
SN12C = system: SN12C
IGROV-1 = system: IGROV-1
NCI-H522 = system: NCI-H522
OVCAR-8 = system: OVCAR-8
TK-10 = system: TK-10
MDA-MB-435 = system: MDA-MB-435
786-0 = system: 786-0
CAKI-1 = system: CAKI-1
LOX IMVI = system: LOX IMVI
OVCAR-4 = system: OVCAR-4
MDA-MB-231 = system: MDA-MB-231
SR = system: SR
HOP-92 = system: HOP-92

With `CCOC(=O)/C=C(\C(=O)OCC)n1ccc(=O)n(Cc2cnnn2COCCOC(C)=O)c1=O` the GI50 (NCI-H226) was 16.8 µM (inactive), the GI50 (NCI-H460) was 14.2 µM (inactive) and the GI50 (PC-3) was 14.3 µM (inactive). For the same compound, the GI50 (UACC-257) was 16.2 µM (inactive), the GI50 (CCRF-CEM) was 1.61 µM (inactive) and the GI50 (MCF7) was 6.4 µM (inactive). For the same compound, the GI50 (BT-549) was 8.28 µM (inactive), the GI50 (RPMI-8226) was 8.15 µM (inactive) and the GI50 (SW-620) was 2.16 µM (inactive). The GI50 (SF-539) was 2.36 µM (inactive), the GI50 (UO-31) was 16.8 µM (inactive) and the GI50 (HCT-15) was 7.67 µM. For the same compound, the GI50 (A498) was 23 µM (inactive), the GI50 (OVCAR-5) was 15.6 µM (inactive) and the GI50 (SF-295) was 28.7 µM (inactive). The GI50 (HCT-116) was 9.25 µM (inactive), the GI50 (RXF 393) was 1.85 µM (inactive) and the GI50 (HL-60) was 0.598 µM (active). For the same compound, the GI50 (COLO 205) was 1.77 µM (inactive), the GI50 (HT-29) was 14.2 µM (inactive) and the GI50 (NCI/ADR-RES) was 22.9 µM (inactive). For the same compound, the GI50 (MOLT-4) was 2.59 µM (inactive), the GI50 (M14) was 15.1 µM (inactive) and the GI50 (SK-MEL-5) was 21.9 µM (inactive). For the same compound, the GI50 (DU-145) was 18.8 µM (inactive), the GI50 (SF-268) was 16.5 µM (inactive) and the GI50 (SNB-75) was 16.4 µM (inactive). The GI50 (HOP-62) was 18.9 µM (inactive), the GI50 (MDA-N) was 16.8 µM (inactive) and the GI50 (ACHN) was 3.79 µM (inactive). The GI50 (SK-OV-3) was 53.7 µM (inactive), the GI50 (A549) was 21.6 µM (inactive) and the GI50 (EKVX) was 14.5 µM (inactive). For the same compound, the GI50 (UACC-62) was 16.1 µM (inactive), the GI50 (KM12) was 16.1 µM (inactive) and the GI50 (T47D) was 6.11 µM (inactive). The GI50 (OVCAR-3) was 11 µM (inactive), the GI50 (Hs-578T) was 20.5 µM (inactive) and the GI50 (SK-MEL-28) was 10 µM (inactive). The GI50 (HCC 2998) was 17.9 µM (inactive), the GI50 (Malme-3M) was 2.04 µM (inactive) and the GI50 (SNB-19) was > 46.7 µM (inactive). For the same compound, the GI50 (SK-MEL-2) was 18.4 µM (inactive), the GI50 (K562) was 3.48 µM (inactive) and the GI50 (U-251) was 16.4 µM (inactive). For the same compound, the GI50 (NCI-H23) was 17.3 µM (inactive), the GI50 (SN12C) was 15.4 µM (inactive) and the GI50 (IGROV-1) was 16.8 µM (inactive). The GI50 (NCI-H522) was 1.61 µM (inactive), the GI50 (OVCAR-8) was 12.1 µM (inactive) and the GI50 (TK-10) was 5.64 µM (inactive). The GI50 (MDA-MB-435) was 8.59 µM (inactive), the GI50 (786-0) was 3.73 µM (inactive) and the GI50 (CAKI-1) was 2.97 µM (inactive). The GI50 (LOX IMVI) was 12.2 µM (inactive), the GI50 (OVCAR-4) was 23.9 µM (inactive) and the GI50 (MDA-MB-231) was 17.6 µM (inactive).
`CC#C[C@]1(O)CCC2[C@@H]3CCC4=CC(=O)CCC4=C3[C@@H](c3ccc(N(C)C)cc3)C[C@@]21C` (stereo partly specified) was tested, and the GI50 (NCI-H460) was 9.86 µM (inactive), the GI50 (PC-3) was 21.7 µM (inactive) and the GI50 (UACC-257) was 13.2 µM (inactive). For the same compound, the GI50 (CCRF-CEM) was 9.75 µM (inactive), the GI50 (MCF7) was 5.27 µM (inactive) and the GI50 (BT-549) was 16.6 µM (inactive). For the same compound, the GI50 (RPMI-8226) was 2.02 µM (inactive), the GI50 (SR) was 14.1 µM (inactive) and the GI50 (SW-620) was 13.3 µM (inactive). For the same compound, the GI50 (SF-539) was 12.6 µM (inactive), the GI50 (UO-31) was 8.2 µM (inactive) and the GI50 (HCT-15) was 12.3 µM. For the same compound, the GI50 (OVCAR-5) was 22.7 µM (inactive), the GI50 (SF-295) was 10.7 µM (inactive) and the GI50 (HCT-116) was 15 µM (inactive). The GI50 (HL-60) was 16 µM (inactive), the GI50 (COLO 205) was 11.5 µM (inactive) and the GI50 (HT-29) was 12.9 µM (inactive). The GI50 (NCI/ADR-RES) was 11.5 µM (inactive), the GI50 (M14) was 13.8 µM (inactive) and the GI50 (SK-MEL-5) was 10.9 µM (inactive). For the same compound, the GI50 (DU-145) was 22.1 µM (inactive), the GI50 (SF-268) was 6.85 µM (inactive) and the GI50 (HOP-62) was 20 µM (inactive). For the same compound, the GI50 (MDA-N) was 11.8 µM (inactive), the GI50 (ACHN) was 18.7 µM (inactive) and the GI50 (SK-OV-3) was 18.3 µM (inactive). For the same compound, the GI50 (A549) was 10.2 µM (inactive), the GI50 (EKVX) was 13.2 µM (inactive) and the GI50 (UACC-62) was 3.36 µM (inactive). For the same compound, the GI50 (KM12) was 15.7 µM (inactive), the GI50 (T47D) was 6.84 µM (inactive) and the GI50 (OVCAR-3) was 8.28 µM (inactive). For the same compound, the GI50 (Hs-578T) was 13 µM (inactive), the GI50 (SK-MEL-28) was 14.4 µM (inactive) and the GI50 (HOP-92) was 1.43 µM (inactive). The GI50 (Malme-3M) was 14.6 µM (inactive), the GI50 (SNB-19) was 35 µM (inactive) and the GI50 (K562) was 20.9 µM (inactive). For the same compound, the GI50 (U-251) was 12.5 µM (inactive), the GI50 (NCI-H23) was 21.4 µM (inactive) and the GI50 (SN12C) was 21.8 µM (inactive). The GI50 (OVCAR-8) was 26.5 µM (inactive), the GI50 (TK-10) was 11.9 µM (inactive) and the GI50 (MDA-MB-435) was 12.2 µM (inactive). For the same compound, the GI50 (786-0) was 15.2 µM (inactive), the GI50 (CAKI-1) was 5.73 µM (inactive) and the GI50 (LOX IMVI) was 16 µM (inactive). For the same compound, the GI50 (OVCAR-4) was 6.37 µM (inactive) and the GI50 (MDA-MB-231) was 8.79 µM (inactive).
For `CCOC(=O)C1(C(F)(F)F)N=C(CC)OC(N2CCOCC2)=N1` (stereo unspecified), the GI50 (NCI-H460) was > 100 µM (inactive), the GI50 (PC-3) was > 100 µM (inactive) and the GI50 (UACC-257) was > 100 µM (inactive). For the same compound, the GI50 (CCRF-CEM) was > 100 µM (inactive), the GI50 (MCF7) was > 100 µM (inactive) and the GI50 (BT-549) was > 100 µM (inactive). The GI50 (RPMI-8226) was > 100 µM (inactive), the GI50 (SR) was > 100 µM (inactive) and the GI50 (SW-620) was > 100 µM (inactive). The GI50 (SF-539) was > 100 µM (inactive), the GI50 (UO-31) was > 100 µM (inactive) and the GI50 (HCT-15) was > 100 µM. The GI50 (OVCAR-5) was > 100 µM (inactive), the GI50 (SF-295) was > 100 µM (inactive) and the GI50 (HCT-116) was > 100 µM (inactive). The GI50 (RXF 393) was > 100 µM (inactive), the GI50 (HL-60) was > 100 µM (inactive) and the GI50 (COLO 205) was > 100 µM (inactive). The GI50 (HT-29) was > 100 µM (inactive), the GI50 (NCI/ADR-RES) was > 100 µM (inactive) and the GI50 (MOLT-4) was > 100 µM (inactive). The GI50 (M14) was > 100 µM (inactive), the GI50 (SK-MEL-5) was > 100 µM (inactive) and the GI50 (DU-145) was > 100 µM (inactive). For the same compound, the GI50 (SF-268) was > 100 µM (inactive), the GI50 (SNB-75) was > 100 µM (inactive) and the GI50 (MDA-N) was > 100 µM (inactive). For the same compound, the GI50 (ACHN) was > 100 µM (inactive), the GI50 (SK-OV-3) was > 100 µM (inactive) and the GI50 (A549) was > 100 µM (inactive). The GI50 (EKVX) was > 100 µM (inactive), the GI50 (UACC-62) was 54.5 µM (inactive) and the GI50 (KM12) was > 100 µM (inactive). For the same compound, the GI50 (T47D) was 46.6 µM (inactive), the GI50 (OVCAR-3) was > 100 µM (inactive) and the GI50 (Hs-578T) was > 100 µM (inactive). For the same compound, the GI50 (SK-MEL-28) was > 100 µM (inactive), the GI50 (HCC 2998) was > 100 µM (inactive) and the GI50 (HOP-92) was > 100 µM (inactive). The GI50 (SNB-19) was > 100 µM (inactive), the GI50 (SK-MEL-2) was > 100 µM (inactive) and the GI50 (K562) was > 100 µM (inactive). For the same compound, the GI50 (U-251) was > 100 µM (inactive), the GI50 (NCI-H23) was > 100 µM (inactive) and the GI50 (SN12C) was > 100 µM (inactive). The GI50 (IGROV-1) was > 100 µM (inactive), the GI50 (NCI-H522) was > 100 µM (inactive) and the GI50 (OVCAR-8) was > 100 µM (inactive). The GI50 (TK-10) was > 100 µM (inactive), the GI50 (MDA-MB-435) was > 100 µM (inactive) and the GI50 (CAKI-1) was > 100 µM (inactive). For the same compound, the GI50 (LOX IMVI) was > 100 µM (inactive), the GI50 (OVCAR-4) was > 100 µM (inactive) and the GI50 (MDA-MB-231) was > 100 µM (inactive).
